{"source": "PubChem BioAssay AID2060883", "about": "(Molecular Pharmacology Branch, DTP, NCI, 2025);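 further: viability read after seven days of compound exposure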", "tested_on": "843782-103-R-J1-PDC complex spheroid viability", "assay": "Anticancer human tumor 843782-103-R-J1-PDC patient-derived lung adenocarcinoma cell line growth inhibition [RAS]", "settings": "for IC50: curve of first compound; for viability, T/C: stronger effect = lower value", "description": "RAS pathway inhibitors in Combinations in Complex Spheroids\nA high-throughput screen of multi-cell type tumor spheroids was designed to identify active combinations of RAS pathway inhibitors and targeted small molecules. Complex spheroids include a stromal component modeled by human endothelial cells (HUVEC) and fibroblasts modeled by human mesenchymal stem cells (MSCs). The concentration ranges selected for each drug and investigational agent were based upon clinically achievable concentrations if the clinical Cmax of the agent was known.\nCompounds. The drugs and investigational agents: abemaciclib (NSC768073), cobimetinib (NSC768068), divarasib (GDC6063, NSC841802), docetaxel (NSC628503), GDC-1971 (RLY-1971, NSC841576), gemcitabine (NSC613327), inavolisib (NSC800729), ipatasertib (NSC767898), KB-0742 (NSC834161), MRTX-1133 (NSC836407), osimertinib (NSC779217), RMC-4630 (NSC839698), RMC-6236 (NSC851965), RMC-6291 (NSC852671), Ro-3306 (NSC812927), sapanisertib (NSC764658), SN-38 (NSC673596), staurosporine (NSC755774), SY5609 (NSC837396), and tovorafenib (DAY101, NSC766906), were obtained from the National Cancer Institute (NCI) Developmental Therapeutics Program Chemical Repository. The FDA-approved anticancer drug set is available from the NCI Developmental Therapeutics Program. […] The stock solutions were prepared in dimethyl sulfoxide (DMSO, Sigma-Aldrich, St. Louis, MO, cat. D2650) at 800-fold the tested concentration and stored at -70 degrees C prior to their use. All drugs and investigational agents were tested over a range starting from a high concentration at or near the clinical Cmax and decreasing in half-log increments. If the clinical Cmax for an agent had not been determined, the highest concentration tested was 10 microM.\nCell Culture. All cells were maintained in an incubator at 37 degrees C and 5% CO2 with 95% humidity. The PDC lines were cultured according to standard operating procedures established by the NCI PDMR. All PDCs were thawed and cultured in Matrigel-coated flasks prepared with a working solution of 1X Ham's F-12 nutrient mix, without supplementation (Invitrogen, Waltham, MA, cat. 11765054), 100 U/mL penicillin-streptomycin (Invitrogen, cat. 15140122), and 2.5% Matrigel (Corning Inc., Corning, NY, cat. 354248) for the first three passages. The 362531-283-R-J2-PDC and 782815-120-R-J1-PDC lines were cultured in 6C/Colon 1B media, which includes advanced DMEM/F-12 (Thermo Fisher Scientific, cat. 12634028), 10 mM HEPES (Thermo Fisher Scientific, cat. 15630080), 1X GlutaMAX supplement (Thermo Fisher Scientific, cat. 35050061), 0.1 mg/mL primocin (InvivoGen, San Diego, CA, cat. ant-pm-2), 10% defined fetal bovine serum, heat inactivated (HyClone Laboratories Inc., Logan, UT, cat. SH30070.03HI), 50% L-WRN conditioned media (ATCC, cat. CRL-3276), 1.25 mM N-Acetyl-L-cysteine (Sigma-Aldrich, cat. A9165), 10 mM nicotinamide (Sigma-Aldrich, cat. N0636), 1X B-27 supplement (Thermo Fisher Scientific, cat. 17504044), 1X N-2 supplement (Thermo Fisher Scientific, cat. 17502048), 50 ng/mL human EGF (Thermo Fisher Scientific, cat. PHG0311), and 10 microM Y-27632 dihydrochloride (Tocris Bioscience, cat. 1254). The K12877-001-R-J1-PDC line was cultured in 6I media, which includes all 6C/Colon 1B media plus 10 ng/mL human FGF-10 (PeproTech, cat. 100-26), 1 ng/mL human FGF-2 (PeproTech, cat. 100-18B), 1 µM prostaglandin E2 (Tocris Bioscience, cat. 2296), […] hydrocortisone (Sigma-Aldrich, cat. H4001), and […] bovine insulin (Sigma-Aldrich, cat. I6634). The K86415-001-R-J1-PDC line was cultured in 6D media, which includes all 6C/Colon 1B media components minus the L-WRN conditioned media. The 485176-168-R4-J1-PDC was cultured in PANC media, which includes all 6C/Colon 1B media plus 100 ng/mL human FGF-10 (PeproTech, cat. 100-26), 500 nM SB-431542 (Selleckchem, cat. S1067), and 10 nM gastrin (Tocris Bioscience, cat. 3006). […]"}
{"smiles": "Cc1nc(N2CCC3(CC2)COC(C)C3N)c(CO)nc1Sc1ccnc(N)c1Cl", "note": "(configuration not stated) + C#Cc1c(F)ccc2cc(O)cc(-c3ncc4c(N5CC6CCC(C5)N6)nc(OCC56CCCN5CC(F)C6)nc4c3F)c12", "values": [{"measurement": "IC50", "setting": "second compound 0.0316 µM", "value": 8.65, "unit": "µM"}, {"measurement": "IC50", "setting": "second compound 0.1 µM", "value": 5.42, "unit": "µM"}, {"measurement": "IC50", "setting": "second compound 0.316 µM", "value": 4.69, "unit": "µM"}, {"measurement": "IC50", "setting": "second compound 1 µM", "value": 0.536, "unit": "µM"}, {"measurement": "IC50", "setting": "second compound 3.16 µM", "value": 0.141, "unit": "µM"}, {"measurement": "IC50", "setting": "second compound 10 µM", "value": "< 0.0316", "unit": "µM"}, {"measurement": "viability, T/C", "setting": "second compound 0.0316 µM, first compound 0.0316 µM", "value": 107, "unit": "%"}, {"measurement": "viability, T/C", "setting": "second compound 0.0316 µM, first compound 0.1 µM", "value": 102, "unit": "%"}, {"measurement": "viability, T/C", "setting": "second compound 0.0316 µM, first compound 0.316 µM", "value": 85.6, "unit": "%"}, {"measurement": "viability, T/C", "setting": "second compound 0.0316 µM, first compound 1 µM", "value": 77.2, "unit": "%"}, {"measurement": "viability, T/C", "setting": "second compound 0.0316 µM, first compound 3.16 µM", "value": 68.2, "unit": "%"}, {"measurement": "viability, T/C", "setting": "second compound 0.0316 µM, first compound 10 µM", "value": 45.8, "unit": "%"}, {"measurement": "viability, T/C", "setting": "second compound 0.1 µM, first compound 0.0316 µM", "value": 105, "unit": "%"}, {"measurement": "viability, T/C", "setting": "second compound 0.1 µM, first compound 0.1 µM", "value": 98, "unit": "%"}, {"measurement": "viability, T/C", "setting": "second compound 0.1 µM, first compound 0.316 µM", "value": 83.1, "unit": "%"}, {"measurement": "viability, T/C", "setting": "second compound 0.1 µM, first compound 1 µM", "value": 72.6, "unit": "%"}, {"measurement": "viability, T/C", "setting": "second compound 0.1 µM, first compound 3.16 µM", "value": 54.3, "unit": "%"}, {"measurement": "viability, T/C", "setting": "second compound 0.1 µM, first compound 10 µM", "value": 44, "unit": "%"}, {"measurement": "viability, T/C", "setting": "second compound 0.316 µM, first compound 0.0316 µM", "value": 100, "unit": "%"}, {"measurement": "viability, T/C", "setting": "second compound 0.316 µM, first compound 0.1 µM", "value": 91.4, "unit": "%"}, {"measurement": "viability, T/C", "setting": "second compound 0.316 µM, first compound 0.316 µM", "value": 79.5, "unit": "%"}, {"measurement": "viability, T/C", "setting": "second compound 0.316 µM, first compound 1 µM", "value": 65.9, "unit": "%"}, {"measurement": "viability, T/C", "setting": "second compound 0.316 µM, first compound 3.16 µM", "value": 50.6, "unit": "%"}, {"measurement": "viability, T/C", "setting": "second compound 0.316 µM, first compound 10 µM", "value": 46.2, "unit": "%"}, {"measurement": "viability, T/C", "setting": "second compound 1 µM, first compound 0.0316 µM", "value": 96, "unit": "%"}, {"measurement": "viability, T/C", "setting": "second compound 1 µM, first compound 0.1 µM", "value": 80.9, "unit": "%"}, {"measurement": "viability, T/C", "setting": "second compound 1 µM, first compound 0.316 µM", "value": 60, "unit": "%"}, {"measurement": "viability, T/C", "setting": "second compound 1 µM, first compound 1 µM", "value": 39.5, "unit": "%"}, {"measurement": "viability, T/C", "setting": "second compound 1 µM, first compound 3.16 µM", "value": 29.6, "unit": "%"}, {"measurement": "viability, T/C", "setting": "second compound 1 µM, first compound 10 µM", "value": 32.1, "unit": "%"}, {"measurement": "viability, T/C", "setting": "second compound 3.16 µM, first compound 0.0316 µM", "value": 82.6, "unit": "%"}, {"measurement": "viability, T/C", "setting": "second compound 3.16 µM, first compound 0.1 µM", "value": 54.5, "unit": "%"}, {"measurement": "viability, T/C", "setting": "second compound 3.16 µM, first compound 0.316 µM", "value": 39.4, "unit": "%"}, {"measurement": "viability, T/C", "setting": "second compound 3.16 µM, first compound 1 µM", "value": 27.9, "unit": "%"}, {"measurement": "viability, T/C", "setting": "second compound 3.16 µM, first compound 3.16 µM", "value": 27.4, "unit": "%"}, {"measurement": "viability, T/C", "setting": "second compound 3.16 µM, first compound 10 µM", "value": 23.4, "unit": "%"}, {"measurement": "viability, T/C", "setting": "second compound 10 µM, first compound 0.0316 µM", "value": 49.2, "unit": "%"}, {"measurement": "viability, T/C", "setting": "second compound 10 µM, first compound 0.1 µM", "value": 32.2, "unit": "%"}, {"measurement": "viability, T/C", "setting": "second compound 10 µM, first compound 0.316 µM", "value": 30.9, "unit": "%"}, {"measurement": "viability, T/C", "setting": "second compound 10 µM, first compound 1 µM", "value": 25.4, "unit": "%"}, {"measurement": "viability, T/C", "setting": "second compound 10 µM, first compound 3.16 µM", "value": 21.6, "unit": "%"}, {"measurement": "viability, T/C", "setting": "second compound 10 µM, first compound 10 µM", "value": 21.2, "unit": "%"}]}
